Measurements: the supplement of paper PMC10627819

How the values were obtained:
Experiment in all cases: fitness (endpoint OD595 vs no drug) (fraction); higher = more growth
[1] = tested on: S. aureus DSM 20231
In short: (§1)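 Each well of a 384-well plate received 30 µl of culture at OD595 0.01, or 55 µl for S. pneumoniae. TSB, LB Lennox or CY served as media at 37 °C. OD595 was taken every 30 min for 14 h and corrected by subtracting the first reading. Fitness is the optical density at stationary-phase entry divided by the robust mean of no-drug controls, capped at 1.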

[2] = tested on: S. aureus Newman
In short: as §1

[3] = tested on: S. pneumoniae D39V
In short: as §1

CO[C@@]12[C@H](COC(N)=O)C3=C(C(=O)C(C)=C(N)C3=O)N1C[C@@H]1N[C@@H]12 [Mitomycin C] + C[n+]1ccc(-c2cc[n+](C)cc2)cc1 [Paraquat]
fitness
Settings	first compound 0.001075 µg/mL	first compound 0.00215 µg/mL	first compound 0.0043 µg/mL	first compound 0.0156 µg/mL	first compound 0.0312 µg/mL	first compound 0.0625 µg/mL
[1], partner 1.25 µg/mL	–	–	–	0.717	0.684	0.563
[1], partner 2.5 µg/mL	–	–	–	0.691	0.678	0.577
[1], partner 5 µg/mL	–	–	–	0.668	0.67	0.557
[2], partner 1.25 µg/mL	–	–	–	0.666	0.675	0.527
[2], partner 2.5 µg/mL	–	–	–	0.675	0.651	0.527
[2], partner 5 µg/mL	–	–	–	0.696	0.676	0.467
[3], partner 1.5 µg/mL	0.955	0.94	0.862	–	–	–
[3], partner 3 µg/mL	0.954	0.911	0.842	–	–	–
[3], partner 6 µg/mL	0.961	0.919	0.783	–	–	–

fitness, [3], one replicate
Settings	first compound 0.002 µg/mL	first compound 0.004 µg/mL	first compound 0.008 µg/mL
partner 1.5 µg/mL	0.852	0.77	0.553
partner 3 µg/mL	0.862	0.781	0.592
partner 6 µg/mL	0.867	0.778	0.558

CO[C@@]12[C@H](COC(N)=O)C3=C(C(=O)C(C)=C(N)C3=O)N1C[C@@H]1N[C@@H]12 [Mitomycin C] + Cc1cc(NS(=O)(=O)c2ccc(N)cc2)no1 [Sulfamethoxazol]
fitness
Settings	first compound 0.001075 µg/mL	first compound 0.00215 µg/mL	first compound 0.0043 µg/mL	first compound 0.0156 µg/mL	first compound 0.0312 µg/mL	first compound 0.0625 µg/mL
[1], partner 1 µg/mL	–	–	–	0.703	0.664	0.534
[1], partner 2 µg/mL	–	–	–	0.686	0.689	0.558
[1], partner 4 µg/mL	–	–	–	0.721	0.684	0.547
[2], partner 1 µg/mL	–	–	–	0.779	0.66	0.546
[2], partner 2 µg/mL	–	–	–	0.777	0.698	0.559
[2], partner 4 µg/mL	–	–	–	0.73	0.622	0.516
[3], partner 1 µg/mL	0.886	0.851	0.773	–	–	–
[3], partner 2 µg/mL	0.894	0.873	0.779	–	–	–
[3], partner 4 µg/mL	0.921	0.913	0.787	–	–	–

fitness, one replicate
Settings	first compound 0.002 µg/mL	first compound 0.004 µg/mL	first compound 0.008 µg/mL	first compound 0.0156 µg/mL	first compound 0.0312 µg/mL	first compound 0.0625 µg/mL
[2], partner 8 µg/mL	–	–	–	0.993	0.823	0.658
[3], partner 1 µg/mL	0.81	0.724	0.496	–	–	–
[3], partner 2 µg/mL	0.727	0.686	0.459	–	–	–
[3], partner 4 µg/mL	0.739	0.7	0.513	–	–	–
